Consider one molecule from patent US9598387B2 (Southern Research Institute, priority 2012, dated 2017).

For assay [1], the target named is T1, human D3 dopamine receptor (Homo sapiens (Human), UniProt P35462). As to the kind of experiment: Radioligand binding (125I-IABN competition), D3. The following applies: 125I-IABN competition, HEK cell membranes expressing human D3. On the procedure:
The affinities of the target compounds were determined using radioligand binding experiments. […] Competition curves were modeled for a single site. Data from competition dose-response curves were analyzed using Tablecurve program (Jandel). IC50 values were converted to equilibrium dissociation constants (Ki values) using the Cheng and Prusoff correction.

Another assay relates to Long Evans rats. As to the kind of experiment: Cocaine-induced locomotor activity. It counts as in vivo, rat. The following applies: 3.75, 7.5 or 15 mg/kg 10 minutes before 10 mg/kg cocaine; p<0.05. On the procedure: These studies were performed using Long Evans rats using standard protocols. Locomotor activity chambers measuring 43×43×30 cm (l×w×h) were used for the locomotor activity experiments. Each chamber was equipped with eight photo-emitters positioned along the length of the chamber 6 cm above the floor, each paired directly opposite a photocell. Locomotor activity counts were registered when adjacent beams were broken consecutively. Before receiving any drug, the animals (n=96) were placed in locomotor activity chambers for habituation, for 2 hours per day for 3 consecutive days. Based on the locomotor activity score obtained during the third habituation session, animals were assigned into one of […] treatment groups. […] For the 113 alone experiments, each of the four groups received one of 4 doses of 113 (0, 3.75, 7.5 or 15 mg/kg) 10 minutes prior to placement in the activity chambers. For the 113 cocaine interaction experiments, each of 4 groups were injected with one of the 4 doses of the compound (0, 3.75, 7.5 or 15 mg/kg) 10 minutes before receiving 10 mg/kg of cocaine as the second injection. […] The locomotor counts in the 113 alone and 113/cocaine experiments were analyzed using two separate mixed-design ANOVAs with 113 dose (between-groups) and 5-min bins (repeated measures) as factors. […]

A further assay concerns the target human D2 receptors (Homo sapiens (Human), UniProt P14416). As to the kind of experiment: D2 Mitogenesis Functional Assay (3H-thymidine uptake, CHOp-D2 cells). The following applies: inhibition of quinpirole (30 nM final) stimulation of mitogenesis; read-out: D2 Antagonist IC50. It counts as cell-based.
The target of assay [2] is T1, human D3 dopamine receptor. The assay can be described thus: Whole Cell Adenylyl Cyclase Assay, D3. It counts as cell-based. The following applies: inhibition of forskolin (100 μM) stimulated cAMP, normalized to quinpirole; compound conc ≥10× Ki (per compound); mean ± S.E.M.
The target of a further assay is D3R (Homo sapiens (Human), UniProt P35462). The assay can be described thus: [35S]GTPγS Binding Assay, CHO D3 membranes. The following applies: antagonist vs dopamine; Ke = functional Ki; read-out: CHO-hD3 Ke. Format: biochemical. (In general: Binding of GTPγS marks nucleotide exchange on a G protein.)

A word on the IC50: it is the concentration needed to halve the response being measured.

T1 sequence (P35462 whole entry): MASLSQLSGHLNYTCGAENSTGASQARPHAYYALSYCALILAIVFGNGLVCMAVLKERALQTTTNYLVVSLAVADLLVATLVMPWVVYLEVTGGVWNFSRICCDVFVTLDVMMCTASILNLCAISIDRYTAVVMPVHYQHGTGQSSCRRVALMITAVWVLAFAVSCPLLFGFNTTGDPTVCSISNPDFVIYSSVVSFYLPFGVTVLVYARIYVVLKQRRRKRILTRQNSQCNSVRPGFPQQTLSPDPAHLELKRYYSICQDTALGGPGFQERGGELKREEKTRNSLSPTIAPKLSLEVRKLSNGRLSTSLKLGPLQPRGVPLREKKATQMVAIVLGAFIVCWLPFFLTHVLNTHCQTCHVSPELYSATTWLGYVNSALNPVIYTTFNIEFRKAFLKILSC
human D2 receptors, sequence (P14416 whole entry): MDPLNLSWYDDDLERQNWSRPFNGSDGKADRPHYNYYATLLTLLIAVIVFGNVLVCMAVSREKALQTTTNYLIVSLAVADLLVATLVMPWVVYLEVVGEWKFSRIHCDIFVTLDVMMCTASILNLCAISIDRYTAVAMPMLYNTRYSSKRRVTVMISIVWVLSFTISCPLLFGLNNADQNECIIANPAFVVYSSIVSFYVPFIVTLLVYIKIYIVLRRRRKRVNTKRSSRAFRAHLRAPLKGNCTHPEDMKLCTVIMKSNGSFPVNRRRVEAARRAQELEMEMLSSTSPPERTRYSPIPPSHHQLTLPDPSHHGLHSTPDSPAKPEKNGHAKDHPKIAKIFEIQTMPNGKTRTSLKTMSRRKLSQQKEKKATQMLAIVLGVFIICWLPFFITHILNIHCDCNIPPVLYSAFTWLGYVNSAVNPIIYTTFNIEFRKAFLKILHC
D3R, sequence (P35462 whole entry): as the sequence (P35462 whole entry) above
Description for D3R: Chinese hamster ovary (CHO) cells expressing human D2L and D3 receptors served as the source for membrane fractions which were washed and resuspended with assay buffer containing Mg^2+, Na^+, EGTA, and bovine serum albumin. […] After preincubation with test compounds, cell membranes and GDP for 15 minutes at 30° C. in a shaking water bath, [^35S]GTPγS was added and incubation proceeded for an additional 45 minutes. Cell membranes were harvested on Brandel GF/B filtermats with a 24-pin Brandel harvester (Biomedical Research & Development Laboratories, Inc., Gaithersburg, Md.). […] Antagonist activity was assessed by testing a fixed concentration of the test compound and varying concentration of the agonist, dopamine (0.001-100 μM for CHO D2 and 0.1 nM-10 uM for CHO D3).

In the case of `CC(C)(C)c1nc(N2CCN(CCCCNC(=O)c3cn4ccccc4n3)CC2)cc(C(F)(F)F)n1` [Compound 113, N-(4-(4-(2-(tert-Butyl)-6-(trifluoromethyl)pyrimidin-4-yl)piperazin-1-yl)butyl)imidazo[1,2-a]pyridine-2-carboxamide], the Ki in assay [1] was determined as 4.2 ± 0.6 nM; at D3R, 1.32 ± 0.35 nM. For the same molecule, the cocaine-induced locomotor activity entry in the assay on Long Evans rats is reported as “significantly reduce cocaine-induced locomotor activity in a dose-related fashion”. Moreover, at human D2 receptors, the IC50 came to 2300 ± 1100 nM. Besides, the “D3 Cyclase % Inhibition Normalized” value in assay [2] is on record as 27.7 ± 7.0%.
